PMC9101684, “Hempseed (Cannabis sativa) Peptide H3 ([sequence]) Exerts Cholesterol-Lowering Effects in Human Hepatic Cell Line” (Nutrients, 2022)
Where no end group is shown, it is not given here.

What was measured:
Caco-2 cells = settings: differentiated Caco-2; cited from earlier work
Description: CVD is a multifactorial pathology in which oxidative and inflammatory status as well as hypercholesterolemia are among the main risk factors. […] To achieve this goal, a deeper study was carried out for characterizing the potential effect of peptide H3 o ...

HepG2 cells = assay: MTT assay, HepG2 cell viability; assay type: cell-based, human; settings: 48 h
Description: A total of 3 × 10^4 HepG2 cells/well were seeded in 96-well plates and treated with peptide H3 (0.00001, 0.0001, 0.001, 0.01, 0.1, and 1.0 mM) or vehicle (H2O) in complete growth media at 37 °C for 48 h under 5% CO2 atmosphere. MTT experiments were performed using the protocol reported in the Supplementary Materials.
HMGCoAR were provided in the HMGCoAR Assay Kit (Sigma Aldrich SRL, Milan, Italy). The experiments were carried out following the manufacturer instructions at 37 °C. […] Subsequently, the samples were mixed and the absorbance at 340 nm read by the microplate reader Synergy H1 […]
vehicle (H2O) in complete growth media for at 37 °C under 5% CO2 atmosphere for 48 h. […] After 5 min of slow shaking, the absorbance at 575 nm was read on the Synergy H1 fluorescence plate reader (Biotek, Bad Friedrichshall, Germany). […]
For the experiments, a total of 3 X 10 4 HepG2 cells/well were seeded in 96-well plates. […] The reaction was stopped with 2 M H2SO4 and then the absorbance at 450 nm was measured using the microplate reader Synergy H1 (Winooski, VT, USA). After the read, cells were stained by adding 1 X Janus Green stain, incubating for 5 min at RT. […]
Afterward 100 µL 0.5 M HCl for well were added and incubated for 10 min. After 10 min shaking, the OD at 595 nm was measured using the microplate reader Synergy H1 (Winooski, VT, USA). […]

[1] = molecular target: T1, HMGCoAR (catalytic domain) (Homo sapiens, UniProt P04035); assay: HMGCoAR activity assay (NADPH oxidation, absorbance 340 nm); assay type: biochemical; settings: purified catalytic domain of HMGCoAR; H3 10-1000 μM; 37 °C; absorbance 340 nm at 0 and 10 min; three independent experiments in triplicate
T1 construct: HMGCoAR (catalytic domain) (2 µL); purchased Sigma-Aldrich
T1 sequence (P04035 426-888 limits assumed): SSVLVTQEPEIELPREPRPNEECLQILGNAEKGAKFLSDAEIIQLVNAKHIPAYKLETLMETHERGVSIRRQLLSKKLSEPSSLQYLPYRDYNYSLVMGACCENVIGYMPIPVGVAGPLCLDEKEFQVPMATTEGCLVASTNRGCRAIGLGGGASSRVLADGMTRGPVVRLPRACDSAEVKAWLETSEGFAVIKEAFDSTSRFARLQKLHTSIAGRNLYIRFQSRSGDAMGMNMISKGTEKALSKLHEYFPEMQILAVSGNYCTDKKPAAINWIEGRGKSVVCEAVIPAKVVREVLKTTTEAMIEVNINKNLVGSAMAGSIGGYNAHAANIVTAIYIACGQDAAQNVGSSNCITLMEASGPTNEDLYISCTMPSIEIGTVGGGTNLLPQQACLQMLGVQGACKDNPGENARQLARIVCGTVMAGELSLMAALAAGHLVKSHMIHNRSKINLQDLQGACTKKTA

IC50 [1]: 59 µM
Sequence: IGFLIIWV [H3]
intestinal trans-epithelial transport (Caco-2 cells): transported intact by differentiated Caco-2 | reduced cell viability (HepG2 cells; 1 mM H3, mean ± S.D. of three experiments in triplicate, Figure S1): 19.63 ± 0.59% | effect on HepG2 viability (HepG2 cells; up to 100 µM, versus control cells, three experiments in triplicate): no effect on HepG2 viability was observed up to 100 µM
